Where a name gives a salt, the structure may show the parent alone.
Key:
[1] = test system: blood pressure and pulse in mice; experiment: Blood pressure and pulse measurements (tail cuff); type: in vivo, mouse; details: for mean pulse: after i.p. challenge; for blood pressure response: i.p.
Experimental: Mean systolic, diastolic and arterial blood pressure (BP) and mean pulse was measured in age and sex matched mice using a computerized tail cuff system (Hatteras Systems, MC4000 Blood Pressure Analysis System, Cary, N.C.). The mice were allowed to acclimate to the apparatus for 5 min prior to the start of measurement. Each animal underwent a cycle of 10 preliminary and 50 experimental pressures measurements for data acquisition and data calculation. Animals were acclimated to the measuring system and protocol for 4 days with treatment with data acquisition being performed on the 5th day. Pressures recordings were performed at the same time each day. Data was accepted if the mouse had valid readings for at least 20 consecutive pulse beats. All studies were performed at the same hour each day.
Respirations were monitored continuously monitored by direct observation of the animal. Body core temperature was measured via rectal probe. Temperature control was performed using a water-circulating warming surface and heating lamp. Following a 15 minute period of stabilization mean systolic, diastolic and arterial blood pressure and mean pulse measurements were determined.

[2] = test system: cutaneous perfusion in mice; type: in vivo, mouse
Experimental: Skin blood flow was measured using laser Doppler imaging (MoorLD1-2λ, Moor Instruments, Devon, England). Briefly, animals were placed in a prone position on a heating pad, and anesthesia was provided by 2% inhalation isoflurane in a 50:50 mixture of oxygen to room air. Core temperature was monitored by rectal probe and was further controlled with a heat lamp. The hair of the dorsum of the animals was clipped and depilated with Nare™ and a template with a 1 cm^2 area used to trace a region of interest (ROI). After equilibration to the experimental set-up analysis of cutaneous blood flow was obtained. The following instrument settings were used: override distance 21 cm; scan time 4 msec/pixel. Results are expressed as the change percent control from baseline of the ROI.

human platelets [3] = experiment: Thrombin-induced human platelet aggregation; type: cell-based; details: for NO delay of thrombin-induced platelet aggregation: DEA/NO 10 μM
Outline: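 Washed human platelets in Tyrode's buffer pH 7.4 (2×10^5/μl) are stirred at 1200 rpm and 37 °C, and optical aggregation is followed for 5 min; under static conditions, A400 is tracked for 5 min instead. TSP1 agents or 1 μM peptide C6d are pre-incubated for 15 min before thrombin ± DEA/NO (10 μM).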

human platelets [4] = experiment: Human platelet adhesion assay; type: cell-based; details: fibrinogen vs collagen, 10 μM
Experimental: Bacteriological Petri dishes (35×10 mm, Becton Dickinson Labware) were pre-coated with collagen (3 μg/ml) or fibrinogen (15 μg/mL) overnight. Following aspiration of non-adherent matrix, dishes were blocked with 1% BSA. Fresh platelets were washed and suspended in Tyrode's buffer and allowed to adhere for 30 minutes. Plates were washed with PBS, fixed with 0.5% glutaraldehyde and stained with 0.02% toluidine blue. Adherent platelets were counted microscopically. In some experiments platelets were pre-incubated with the Rap1 geranylgeranyltransferase inhibitor GGTI-298 (10 μM) for 30 minutes prior to initiating adhesion.

Rap1 = Rap1 pulldown assay in platelets; type: cell-based, human; details: thrombin
Experimental: Platelets were diluted to 5×10^8 platelets/mL in Tyrode's buffer and treated with various reagents for the indicated times. Immediately following treatment, platelets were pelleted at 13,000 g for 30 seconds at 4° C. and resuspended in ice-cold lysis buffer containing 20 mM HEPES (pH 7.5), 100 mM NaCl, 10 mM EGTA, 20 mM MgCl2, 8 mM α-glycerophosphate, 1% Triton X-100, 1 mM phenylmethylsulfonylfluoride, 40 mM NaF, 1 mM Na3VO4, 10 μg/mL aprotinin, and 10 μg/mL leupeptin. Lysates were centrifuged at 13,000 g for 5 minutes at 4° C. and the supernatants were incubated for 15 minutes on a tumbler at 4° C. with glutathione Sepharose 4B beads (Amersham) prebound with a GST-Ral GDS RBD fusion protein (kind gift of J. Silvio Gutkind, NIH, Bethesda, Md.). Bead complexes were washed by centrifugation at 6,000 g for 30 seconds at 4° C. followed by resuspension in 0.5 mL lysis buffer; 2 washes were performed for each sample. After the second wash, beads were resuspended in an equal volume of 2×SDS sample buffer and stored at −20° C. For Western analysis, bead-bound proteins in sample buffer were boiled for 10 minutes and subjected to electrophoresis on NuPAGE 10% Bis-Tris gels (Invitrogen, Carlsbad, Calif.), transferred to Immobilon-P PVDF membranes (Millipore, Billerica, Mass.), and blotted with rabbit polyclonal anti-Rapt (sc-65; Santa Cruz Biotechnology, Santa Cruz, Calif.).

murine ASMC (CD47 null) = experiment: Murine ASMC proliferation; type: cell-based, mouse; details: CD47 null MASMC
Experimental: (§1) Murine ASMC were obtained from aortic segments harvested sterilely from C57B1/6 CD47 null or CD36 null mice as described (Ray et al., Methods Cell Sci 23:185-188, 2001) and cultured in SM-GM (Cambrex)+20% FCS. In the case of CD36 null cells, culture flasks were pre-coated with 1% gelatin prior to cell plating. Wild type C57B1/6 ASMC cultures were prepared as previously described (Isenberg et al., Matrix Biol 24:110-123, 2005). Cell culture purity was determined by immunohistochemistry staining for α-smooth muscle actin. Cells were used within passage 1 to 4 to minimize overgrowth of other cell types.
Proliferation of vascular cells was measured with a non-radioactive colorimetric assay (CellTiter 96, Promega, Madison, Wis.). Briefly, to each well of a 96-well culture plate (Nunc, Denmark) 5×10^3 cells were suspended in 100 μl of culture medium with indicated treatments and incubated for 72 hours at 37° C. in a 5% CO2 atmosphere. Following incubation 20 μl of tetrazolium compound/solubilization agent was added and incubation continued for 4 hours under the same conditions. The plate was then read on a MR580 Microelisa Auto Reader (Dynatech) at a wavelength of 490 nm. Appropriate zero time controls were run for all assays and the optical density readings obtained then subtracted from those obtained at 72 hours.

[5] = test system: murine ASMC (WT, CD36 null, CD47 null); experiment: Intracellular cGMP in murine ASMC; type: cell-based, mouse; details: WT MASMC
Experimental: as §1
HUVEC (10^4 cells/well) grown overnight in 96-well culture plates containing full growth medium with 2% FCS and weaned in growth medium without additives and 1% FCS over 24 hrs before treatment with NO donors and other agents in SM-GM without additives+0.1% BSA. Intracellular cGMP levels were determined according to the manufacturer's instructions using an enzyme immunoassay kit (Amersham Biosciences). In other experiments ASMC from wild type and CD36 or CD47 null mice were plated onto 96-well culture plates and incubated overnight in full growth medium. They were then weaned off serum as described to SM-GM+0.1% BSA and treated with NO donor and other agents as indicated. Intracellular cyclic nucleotides were determined via immunoassay.

human platelets [6] = experiment: cGMP in human platelets; type: cell-based; details: washed human platelets in Tyrode's buffer
Experimental: Fresh human platelets at 2×10^5 platelets/μl in Tyrode's buffer or PRP were pre-incubated with the indicated agents for 15 minutes and then challenged with DEA/NO for the indicated time interval at room temperature and total cGMP determined via immunoassay (Amersham, GE Healthcare, Buckinghamshire, UK). Murine WT and TSP1-null platelets were treated with DEA/NO and cGMP flux measured.

[7] = test system: skeletal muscle blood oxygenation in mice; experiment: BOLD MRI of hindlimb muscle after NO challenge; type: in vivo, mouse; details: for magnitude of increased BOLD MRI signal: DEA/NO 100 nmol/g intrarectal
Experimental: MRI images were acquired using a Bruker Biospin 4.7 T scanner and isoflurane anesthesia. Muscle tissue scanned was at rest, so alterations in oxygenation reflected changes in perfusion rather than in oxygen consumption (Krishna et al., Ilar J 42:209-218, 2001; Watterson et al., Cell Signal 17:289-298, 2005). MR measurements were started after the mouse's body temperature reached 37° C. Prior to the experiments, gradient echo based T1 sequence was used to determine the target slice location. A series of T2* weighted gradient echo blood oxygenation level dependent (BOLD) image data sets at transverse to the midpoint of the femur were repeatedly acquired for 30 min to monitor temporal changes in blood oxygenation and blood flow. DEA/NO (100 nmol/g body weight) was injected with saline via the rectal cannula 5.0 min after starting the scan. Imaging parameters used were: TR=450 ms, Flip angle=45, Nex=1, slice thickness=2 mm, matrix size=64×64, total imaging time for the series was 29 min.

cGK-I = biological target: T1, cGK-I (Homo sapiens, UniProt Q13976); experiment: cGK in vitro kinase assay of platelet lysates; type: biochemical; details: activation via sGC using DEA/NO in intact platelets
T1 construct: endogenous in cells; host or cells: washed human platelets, treated intact, then lysed
T1 sequence (Q13976 1-686 isoform Q13976-2): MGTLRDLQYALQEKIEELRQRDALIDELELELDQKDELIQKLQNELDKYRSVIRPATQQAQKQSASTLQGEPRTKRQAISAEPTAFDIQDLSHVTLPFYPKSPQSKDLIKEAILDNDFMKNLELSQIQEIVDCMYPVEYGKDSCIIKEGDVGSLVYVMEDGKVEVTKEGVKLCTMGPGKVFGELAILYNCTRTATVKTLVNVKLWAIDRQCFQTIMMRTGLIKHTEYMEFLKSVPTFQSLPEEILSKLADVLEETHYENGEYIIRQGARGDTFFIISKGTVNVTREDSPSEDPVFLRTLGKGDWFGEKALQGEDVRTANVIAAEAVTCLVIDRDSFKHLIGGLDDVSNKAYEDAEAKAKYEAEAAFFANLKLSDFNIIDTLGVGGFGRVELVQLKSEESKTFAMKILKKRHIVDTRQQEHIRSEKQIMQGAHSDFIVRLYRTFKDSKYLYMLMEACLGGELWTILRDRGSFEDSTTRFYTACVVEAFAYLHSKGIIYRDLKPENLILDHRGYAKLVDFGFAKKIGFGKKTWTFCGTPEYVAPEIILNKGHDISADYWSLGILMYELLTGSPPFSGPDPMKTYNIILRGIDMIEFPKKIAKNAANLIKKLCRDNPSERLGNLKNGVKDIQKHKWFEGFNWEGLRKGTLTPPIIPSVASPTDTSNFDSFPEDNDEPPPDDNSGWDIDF
Experimental: Platelets were washed as described above and resuspended in Tyrode's buffer (3×10^8 platelets/mL). Platelets were preincubated with TSP1 (2.2 nM) or Rp-8-pCPT-cGMP for 15 minutes prior to treatment with 8-Br-cGMP (100 μM) or NO (DEA/NO 10 μM) for 2 minutes. Treatment was stopped by placing the platelets on ice. Immediately following treatment, platelets were pelleted by centrifugation at 13,000×g at 4° C. for 15 seconds and resuspended in a lysis buffer containing 10 mM HEPES (pH 7.4), 1 mM EDTA, 1 mM 3-Isobutyl-1-methylxanthine, 125 mM KCl, 1 mM phenylmethysulfonylfluoride, 1 μg/ml aprotinin, and 1 μg/ml leupeptin. Resuspended platelets were sonicated on ice 3 times for 10 seconds each before centrifugation at 13,000×g for 5 minutes at 4° C. 100 μg lysate from each sample was incubated at 25° C. for 20 minutes with kinase buffer (150 μM Arg-Lys-Arg-Ser-Arg-Ala-Glu (SEQ ID NO: 17) peptide substrate (Bachem, King of Prussia, Pa.)), 10 mM HEPES pH 7.4, 35 mM β-glycerophosphate, 4 mM MgCl2, 5 μM Rp-8 pCPT-cAMPS, 0.5 mM EDTA, […] [γ-32P]ATPS (Sigma-Aldrich, St. Louis, Mo.)). Kinase assay reactions were terminated by spotting 50 μL of reaction mixture onto nitrocellulose. Nitrocellulose spots were washed 5 times each with 100 μL of 0.5% phosphoric acid before analysis with a scintillation counter.

CNC[C@H](O)c1ccc(O)c(O)c1 [epinephrine, Epinephrine hydrochloride]
lethality ([1]; CD47 null animals, 0.05 μg/animal i.p.): fatal
mean arterial pressure ([1]; TSP1 null animals, 0.05 μg/animal i.p.): did not show a significant increase
mean pulse [1]: moderately increased
mean arterial pressure ([1]; wild type animals, 0.05 μg/animal i.p.): expected increase in mean arterial pressure
cutaneous perfusion ([2]; wild type and TSP1 null animals, epinephrine bolus): increased cutaneous perfusion

COC(=O)[C@H](CC(C)C)NC(=O)c1ccc(NC[C@@H](N)CS)cc1-c1cccc2ccccc12 [GGTI-298, reference compound]
platelet aggregation at high shear in the presence of NO (human platelets [3]; GGTI-298 preincubation): preferentially delayed platelet aggregation
thrombin-stimulated adhesion of platelets (human platelets [4]): selective in adhesion assays for blocking thrombin-stimulated adhesion of platelets on fibrinogen
Rap1 activation (GTP loading) (Rap1): inhibits basal and partially inhibits thrombin-stimulated Rap1 activation

C[N+](C)(C)CCCCCC[N+](C)(C)C [hexamethonium, hexamethonium chloride]
cutaneous perfusion and survival after autonomic blockade ([2]; wild type and TSP1 null animals under isoflurane, 30 μg/gram i.v.): decreases in cutaneous perfusion and eventual cardiovascular collapse and death

3TSR: recombinant type 1 repeats of TSP1
NO-stimulated proliferation (murine ASMC (CD47 null)): failed to inhibit
NO-stimulated cGMP [5]: inhibited NO-stimulated cGMP responses in WT
NO delay of thrombin-induced platelet aggregation (human platelets [3]; high shear, thrombin 0.2 U/ml): blocked the ability of NO to delay thrombin-induced aggregation
NO delay of thrombin-induced platelet aggregation (human platelets [3]; static / low shear conditions): reversed the NO delay of aggregation under static conditions
NO stimulated cGMP in platelets (human platelets [6]): inhibited NO stimulated cGMP flux

CCN(CC)/[N+]([O-])=N/O.CCNCC [DEA/NO, diethylamine NONOate]
magnitude of increased BOLD MRI signal ([7]; TSP1 null mice): 25%
decreased BOLD signal ([7]; TSP null mice): 14%
decreased BOLD signal ([7]; WT mice): 11%
magnitude of increased BOLD MRI signal ([7]; WT mice): 15%
32P-incorporation into cGK-I selective peptide (cGK-I): strongly induced 32P-incorporation
blood pressure response ([1]; TSP1 null versus wild type): significantly greater decreases in blood pressure measurements
mean pulse [1]: tended to increase modestly
blood pressure response ([1]; awake wild type and TSP1-null mice): significant decreases in systolic, diastolic and mean arterial pressure
initial increase in cutaneous perfusion ([2]; rectal catheter bolus, core temperature 34.5° C.): significantly greater in TSP1 and CD47 null mice

Reference: patent US8865672B2, “Prevention of tissue ischemia and related methods” (The United States of America, as represented by the …, priority 2006, dated 2014)
